Experiment [1] has as its system Streptococcus sp. 'group A'. Briefly: growth inhibition of control SK(-) GAS strain, dose response, counter-screen for streptokinase expression inhibitor project, luminescence, kanamycin, BacTiterGlo, confirmation (AID 1900). Format: functional, organism-based.
Experiment [2] can be described thus: inhibitors of intracellular T. cruzi replication, confirmation, NIH3T3 host cells, beta-gal luminescence (AID 2044).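 Also: intracellular parasites grown in NIH/3T3 mouse fibroblasts as host cells; luminescent beta-galactosidase reporter signal from transgenic T. cruzi replicating inside host cells; inhibitors lower the luminescence signal.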 Format: functional, cell-based.
Experiment [3] is described as follows: cytotoxicity toward NIH3T3 fibroblasts, dose response, counter-screen, cell-based, ATP luminescence, mouse fibroblasts (AID 2010).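 Also: cells exposed to compound for about 90 hours before reading.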 Type of experiment: functional.
A further experiment has as its system Streptococcus. The experiment in a line: Group A Streptococcus viability loss, dose response, counter-screen for streptokinase expression inhibitor project, luminescence, BacTiterGlo (AID 1915).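 Also: potency for reduction of bacterial viability or growth.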 Format: functional, organism-based.
The target in experiment [4] is 26S proteasome non-ATPase regulatory subunit 14 (Homo sapiens, UniProt O00487). Briefly: inhibition of proteasome subunit RPN11 – biochemical, fluorescence polarization, uHTS hits, confirmation (AID 602368). Format: functional.
Experiment [5] has as its target 72 kDa type IV collagenase (Homo sapiens, UniProt P08253). Briefly: Dose Response validation of uHTS RPN11 inhibitor hits using a MMP-2 Fluorescence assay. Type of experiment: functional.
For another experiment, the target named is Prothrombin (Bos taurus, UniProt P00735). Briefly: thrombin inhibition, dose response, biochemical, fluorescence polarization, uHTS hits (AID 602369). Type of experiment: functional.
Experiment [6] has as its target T1, High affinity choline transporter 1 (Homo sapiens, UniProt Q9GZV3).
T1 sequence (Q9GZV3 whole entry): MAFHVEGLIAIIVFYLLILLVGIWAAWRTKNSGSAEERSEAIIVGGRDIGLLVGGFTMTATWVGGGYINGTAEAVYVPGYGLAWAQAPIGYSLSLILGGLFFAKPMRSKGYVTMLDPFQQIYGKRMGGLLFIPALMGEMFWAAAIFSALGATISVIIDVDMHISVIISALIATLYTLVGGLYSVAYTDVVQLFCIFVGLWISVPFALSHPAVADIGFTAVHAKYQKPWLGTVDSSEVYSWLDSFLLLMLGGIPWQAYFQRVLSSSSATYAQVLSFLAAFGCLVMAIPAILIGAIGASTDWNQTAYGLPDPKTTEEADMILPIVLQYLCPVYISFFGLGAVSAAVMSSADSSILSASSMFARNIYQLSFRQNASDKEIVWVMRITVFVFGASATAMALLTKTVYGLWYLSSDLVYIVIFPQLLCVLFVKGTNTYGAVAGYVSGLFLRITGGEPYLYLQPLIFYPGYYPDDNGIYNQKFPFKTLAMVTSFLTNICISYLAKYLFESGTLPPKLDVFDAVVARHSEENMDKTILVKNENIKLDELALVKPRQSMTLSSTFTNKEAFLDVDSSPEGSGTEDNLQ
Briefly: CHT activators, dose response, cell-based, 10-point CRC, membrane potential dye (AID 602376). Type of experiment: functional.

For experiment [7], the target named is T2, Sentrin-specific protease 8 (Homo sapiens, UniProt Q96LD8).
T2 sequence (Q96LD8 whole entry): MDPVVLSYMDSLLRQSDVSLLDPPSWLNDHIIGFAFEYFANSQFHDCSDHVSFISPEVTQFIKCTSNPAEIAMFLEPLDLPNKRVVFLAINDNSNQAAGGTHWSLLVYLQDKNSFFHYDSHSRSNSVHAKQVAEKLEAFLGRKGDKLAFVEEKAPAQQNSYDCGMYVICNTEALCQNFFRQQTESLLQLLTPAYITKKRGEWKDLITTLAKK
The experiment in a line: SENP8 protease inhibitors, SAR follow-up, biochemical, luminescence (AID 504501). Type of experiment: functional.

The target in experiment [8] is T3, Caspase-3 (Homo sapiens, UniProt P42574).
T3 sequence (P42574 whole entry): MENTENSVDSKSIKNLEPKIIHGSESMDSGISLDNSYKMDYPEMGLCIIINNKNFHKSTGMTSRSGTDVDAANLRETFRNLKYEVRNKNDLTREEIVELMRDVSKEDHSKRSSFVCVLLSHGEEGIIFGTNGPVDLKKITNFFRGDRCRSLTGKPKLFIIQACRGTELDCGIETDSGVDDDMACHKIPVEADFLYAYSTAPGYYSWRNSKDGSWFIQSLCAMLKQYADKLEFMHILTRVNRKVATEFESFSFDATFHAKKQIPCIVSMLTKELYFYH
Briefly: caspase-3 inhibitors as off-family protease, SAR follow-up, selectivity assay for SENP protease inhibitor project, biochemical, luminescence, set 2 (AID 588599). Type of experiment: functional.

Experiment [9] addresses T2, Sentrin-specific protease 8. The experiment in a line: SENP8 protease inhibitors, SAR follow-up, biochemical, luminescence, set 2 (AID 588601). Type of experiment: functional.
Experiment [10] concerns the target T3, Caspase-3. The experiment in a line: SAR Analysis of small molecule inhibitors of Sentrin-specific proteases (SENPs) using a Caspase-3 Selectivity assay. [Related pubchem assays (depositor defined):AID2540, AID2599, AID434973, AID489001]. Type of experiment: functional.
Experiment [11] addresses T4, Sentrin-specific protease 7 (Homo sapiens, UniProt Q9BQF6).
T4 sequence (Q9BQF6 whole entry): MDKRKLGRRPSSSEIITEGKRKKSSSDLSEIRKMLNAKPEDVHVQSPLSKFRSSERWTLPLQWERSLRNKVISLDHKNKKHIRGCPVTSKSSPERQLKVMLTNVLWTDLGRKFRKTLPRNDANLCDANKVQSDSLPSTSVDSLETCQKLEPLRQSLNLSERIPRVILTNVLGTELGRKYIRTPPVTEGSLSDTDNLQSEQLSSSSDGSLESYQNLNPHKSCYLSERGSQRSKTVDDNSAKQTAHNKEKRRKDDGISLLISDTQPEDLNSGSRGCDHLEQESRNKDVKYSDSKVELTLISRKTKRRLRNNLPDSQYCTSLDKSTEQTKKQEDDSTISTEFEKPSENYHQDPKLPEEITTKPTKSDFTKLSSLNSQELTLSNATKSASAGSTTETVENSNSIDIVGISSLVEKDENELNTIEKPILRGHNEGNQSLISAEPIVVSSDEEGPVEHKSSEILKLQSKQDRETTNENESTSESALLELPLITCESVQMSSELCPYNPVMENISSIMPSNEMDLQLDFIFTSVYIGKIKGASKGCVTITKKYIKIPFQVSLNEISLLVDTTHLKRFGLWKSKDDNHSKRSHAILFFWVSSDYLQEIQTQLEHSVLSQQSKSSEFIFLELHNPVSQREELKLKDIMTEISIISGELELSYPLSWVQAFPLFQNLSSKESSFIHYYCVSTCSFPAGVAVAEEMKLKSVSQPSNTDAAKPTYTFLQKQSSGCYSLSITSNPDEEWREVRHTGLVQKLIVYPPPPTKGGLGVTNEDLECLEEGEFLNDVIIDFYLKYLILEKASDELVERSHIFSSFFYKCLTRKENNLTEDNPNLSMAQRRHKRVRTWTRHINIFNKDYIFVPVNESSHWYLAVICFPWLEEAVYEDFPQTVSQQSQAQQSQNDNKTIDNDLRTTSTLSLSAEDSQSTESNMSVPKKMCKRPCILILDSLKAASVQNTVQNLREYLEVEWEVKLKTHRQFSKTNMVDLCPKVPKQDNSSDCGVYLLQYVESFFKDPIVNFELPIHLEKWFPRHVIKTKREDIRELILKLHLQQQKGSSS
Briefly: SENP7 protease inhibitors, SAR follow-up, biochemical, luminescence, set 2 (AID 588600). Type of experiment: functional.

The target of experiment [12] is T5, Sentrin-specific protease 6 (Homo sapiens, UniProt Q9GZR1).
T5 sequence (Q9GZR1 whole entry): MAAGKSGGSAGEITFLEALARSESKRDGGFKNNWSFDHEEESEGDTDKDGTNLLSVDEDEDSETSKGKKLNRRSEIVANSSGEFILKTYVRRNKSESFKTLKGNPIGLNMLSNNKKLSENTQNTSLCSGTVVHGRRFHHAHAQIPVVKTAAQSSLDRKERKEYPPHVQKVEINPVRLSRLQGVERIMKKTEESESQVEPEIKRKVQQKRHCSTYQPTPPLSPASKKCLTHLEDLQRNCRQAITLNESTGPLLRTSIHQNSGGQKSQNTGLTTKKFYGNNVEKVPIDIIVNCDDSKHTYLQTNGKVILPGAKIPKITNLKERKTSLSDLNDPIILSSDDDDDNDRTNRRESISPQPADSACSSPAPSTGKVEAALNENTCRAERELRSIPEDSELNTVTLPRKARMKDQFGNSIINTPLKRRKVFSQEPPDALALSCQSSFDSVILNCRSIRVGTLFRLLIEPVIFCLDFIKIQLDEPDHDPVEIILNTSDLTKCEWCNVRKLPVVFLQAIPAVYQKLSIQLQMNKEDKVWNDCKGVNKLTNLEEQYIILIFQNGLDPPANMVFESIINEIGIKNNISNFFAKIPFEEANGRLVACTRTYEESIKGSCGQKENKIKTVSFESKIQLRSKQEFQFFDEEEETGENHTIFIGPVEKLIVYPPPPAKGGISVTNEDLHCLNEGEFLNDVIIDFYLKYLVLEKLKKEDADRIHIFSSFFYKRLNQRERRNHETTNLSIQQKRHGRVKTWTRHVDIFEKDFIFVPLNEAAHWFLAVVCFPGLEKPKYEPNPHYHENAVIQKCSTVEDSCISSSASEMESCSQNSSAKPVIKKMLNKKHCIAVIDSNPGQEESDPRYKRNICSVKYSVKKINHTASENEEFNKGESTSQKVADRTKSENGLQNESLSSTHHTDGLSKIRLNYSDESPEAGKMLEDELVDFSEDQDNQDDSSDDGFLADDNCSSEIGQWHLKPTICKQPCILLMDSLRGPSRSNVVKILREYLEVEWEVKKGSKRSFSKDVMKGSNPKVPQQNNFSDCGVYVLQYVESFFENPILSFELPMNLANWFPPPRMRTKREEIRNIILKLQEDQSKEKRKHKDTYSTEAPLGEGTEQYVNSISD
The experiment in a line: SAR Analysis of small molecule inhibitors of Sentrin-specific protease 6 (SENP6) using a Luminescent assay. [Related pubchem assays (depositor defined):AID2582, AID2599]. Format: functional.

In experiment [13] the target is T5, Sentrin-specific protease 6. The experiment in a line: SENP6 protease inhibitors, SAR follow-up, biochemical, luminescence, set 2 (AID 588598). Format: functional.
For experiment [14], the target named is T4, Sentrin-specific protease 7. Briefly: SENP7 protease inhibitors, SAR follow-up, biochemical, luminescence (AID 504497). Type of experiment: functional.
In experiment [15] the target is DNA dC->dU-editing enzyme APOBEC-3G (Homo sapiens, UniProt Q9HC16). Briefly: APOBEC3G deaminase inhibitors, SAR follow-up, biochemical, fluorescence, single-stranded DNA substrate (AID 602136). Format: functional. The following applies: read-out: IC50_Mean.
In experiment [16] the target is DNA dC->dU-editing enzyme APOBEC-3A (Homo sapiens, UniProt P31941). The experiment in a line: SAR analysis of small molecule inhibitors of APOBEC3A DNA Deaminase via a fluorescence-based single-stranded DNA deaminase assay. Type of experiment: functional. Conditions: read-out: IC50_Mean.
The next experiment in a line: cells. Format: functional.
Experiment [17] has as its target Glycogen synthase kinase-3 alpha (Homo sapiens, UniProt P49840). Briefly: Inhibition of Human GSK-3 alpha Activity Measured in Biochemical System Using Microfluidics - 2063-06_Inhibitor_Dose_DryPowder_Activity_Set2. [Related pubchem assays (depositor defined):AID2709].
Experiment [18] deals with Glycogen synthase kinase-3 beta (Homo sapiens, UniProt P49841). Briefly: Inhibition of Human GSK-3 beta Activity Measured in Biochemical System Using Microfluidics - 2063-05_Inhibitor_Dose_DryPowder_Activity_Set2. [Related pubchem assays (depositor defined):AID2709].
Experiment [19] concerns the target T6, Low molecular weight phosphotyrosine protein phosphatase (Homo sapiens, UniProt P24666).
T6 sequence (P24666 whole entry): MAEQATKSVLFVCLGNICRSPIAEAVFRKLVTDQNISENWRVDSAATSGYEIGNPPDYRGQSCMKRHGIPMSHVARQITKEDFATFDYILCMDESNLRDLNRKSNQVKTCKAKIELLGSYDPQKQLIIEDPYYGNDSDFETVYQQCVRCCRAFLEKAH
Format: functional. Conditions: read-out: IC50_Mean.

The target in experiment [20] is T6, Low molecular weight phosphotyrosine protein phosphatase. Format: functional. Conditions: read-out: IC50_Mean. This is another data set of the same source.
The target of experiment [21] is Sphingosine 1-phosphate receptor 2 (Homo sapiens, UniProt O95136). Briefly: Late-stage fluorescence-based dose-response cell-based counterscreen assay to identify agonists of the Sphingosine 1-Phosphate Receptor 3 (S1P3): Sphingosine 1-Phosphate Receptor 2 (S1P2) agonist assay. Type of experiment: functional.
Experiment [22] deals with Sphingosine 1-phosphate receptor 4 (Homo sapiens, UniProt O95977). The experiment in a line: Late-stage fluorescence-based dose-response cell-based counterscreen assay to identify agonists of the Sphingosine 1-Phosphate Receptor 3 (S1P3): Sphingosine 1-Phosphate Receptor 4 (S1P4) agonist assay. Type of experiment: functional.

Structures are written as SMILES. Calls of active or inactive are those of the source.

Chain of Glycogen synthase kinase-3 beta (P49841 whole entry): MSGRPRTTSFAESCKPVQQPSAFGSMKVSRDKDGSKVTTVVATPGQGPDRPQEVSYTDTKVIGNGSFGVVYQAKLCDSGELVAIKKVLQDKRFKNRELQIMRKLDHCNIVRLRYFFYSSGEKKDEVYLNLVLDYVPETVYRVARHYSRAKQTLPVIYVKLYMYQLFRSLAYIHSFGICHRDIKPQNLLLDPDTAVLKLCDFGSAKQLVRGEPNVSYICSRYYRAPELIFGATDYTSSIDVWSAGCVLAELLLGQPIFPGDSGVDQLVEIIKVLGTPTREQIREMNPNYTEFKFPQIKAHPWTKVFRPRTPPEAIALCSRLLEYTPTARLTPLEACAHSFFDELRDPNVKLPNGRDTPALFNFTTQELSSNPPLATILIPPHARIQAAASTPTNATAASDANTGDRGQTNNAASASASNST
Chain of 72 kDa type IV collagenase (P08253 whole entry): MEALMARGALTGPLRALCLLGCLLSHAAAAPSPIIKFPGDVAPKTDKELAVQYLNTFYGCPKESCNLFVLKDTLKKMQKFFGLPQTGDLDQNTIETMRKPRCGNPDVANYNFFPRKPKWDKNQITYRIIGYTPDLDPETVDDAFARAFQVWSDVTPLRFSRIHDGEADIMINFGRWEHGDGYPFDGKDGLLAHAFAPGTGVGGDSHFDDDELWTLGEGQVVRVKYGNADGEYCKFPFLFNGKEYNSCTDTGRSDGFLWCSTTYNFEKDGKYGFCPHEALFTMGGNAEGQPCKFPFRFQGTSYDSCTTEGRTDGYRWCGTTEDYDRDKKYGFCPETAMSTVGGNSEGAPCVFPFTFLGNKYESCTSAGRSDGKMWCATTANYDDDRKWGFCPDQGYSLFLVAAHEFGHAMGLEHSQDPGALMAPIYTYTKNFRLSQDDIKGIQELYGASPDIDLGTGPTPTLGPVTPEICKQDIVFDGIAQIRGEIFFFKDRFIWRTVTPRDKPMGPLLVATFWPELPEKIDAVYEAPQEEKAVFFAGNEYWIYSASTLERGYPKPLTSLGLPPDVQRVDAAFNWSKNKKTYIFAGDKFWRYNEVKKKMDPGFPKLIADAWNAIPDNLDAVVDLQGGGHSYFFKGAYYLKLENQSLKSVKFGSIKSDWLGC
Chain of DNA dC->dU-editing enzyme APOBEC-3A (P31941 whole entry): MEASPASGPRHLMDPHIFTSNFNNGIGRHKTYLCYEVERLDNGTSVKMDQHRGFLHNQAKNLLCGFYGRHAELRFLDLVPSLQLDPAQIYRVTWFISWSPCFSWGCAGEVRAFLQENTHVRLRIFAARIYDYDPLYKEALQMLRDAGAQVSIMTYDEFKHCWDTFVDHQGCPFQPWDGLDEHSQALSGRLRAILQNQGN
Chain of Sphingosine 1-phosphate receptor 4 (O95977 whole entry): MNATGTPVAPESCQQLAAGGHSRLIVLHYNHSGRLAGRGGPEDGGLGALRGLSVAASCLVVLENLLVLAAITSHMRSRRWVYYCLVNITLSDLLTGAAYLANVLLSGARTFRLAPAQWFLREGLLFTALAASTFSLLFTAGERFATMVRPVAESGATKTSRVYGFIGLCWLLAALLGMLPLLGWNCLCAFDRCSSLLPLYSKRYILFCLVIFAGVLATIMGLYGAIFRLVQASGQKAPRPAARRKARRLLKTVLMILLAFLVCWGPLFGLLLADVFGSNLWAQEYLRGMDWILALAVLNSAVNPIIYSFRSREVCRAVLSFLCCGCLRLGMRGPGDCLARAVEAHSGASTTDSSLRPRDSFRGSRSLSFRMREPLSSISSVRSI
Chain of 26S proteasome non-ATPase regulatory subunit 14 (O00487 whole entry): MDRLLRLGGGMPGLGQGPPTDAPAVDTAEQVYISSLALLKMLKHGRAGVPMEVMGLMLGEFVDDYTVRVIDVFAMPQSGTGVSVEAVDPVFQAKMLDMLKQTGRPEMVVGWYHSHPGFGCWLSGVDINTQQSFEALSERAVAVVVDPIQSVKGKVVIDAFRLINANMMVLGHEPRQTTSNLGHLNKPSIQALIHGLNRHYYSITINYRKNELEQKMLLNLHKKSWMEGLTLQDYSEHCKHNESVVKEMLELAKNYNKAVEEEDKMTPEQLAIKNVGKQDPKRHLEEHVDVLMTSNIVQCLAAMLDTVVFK
Chain of Sphingosine 1-phosphate receptor 2 (O95136 whole entry): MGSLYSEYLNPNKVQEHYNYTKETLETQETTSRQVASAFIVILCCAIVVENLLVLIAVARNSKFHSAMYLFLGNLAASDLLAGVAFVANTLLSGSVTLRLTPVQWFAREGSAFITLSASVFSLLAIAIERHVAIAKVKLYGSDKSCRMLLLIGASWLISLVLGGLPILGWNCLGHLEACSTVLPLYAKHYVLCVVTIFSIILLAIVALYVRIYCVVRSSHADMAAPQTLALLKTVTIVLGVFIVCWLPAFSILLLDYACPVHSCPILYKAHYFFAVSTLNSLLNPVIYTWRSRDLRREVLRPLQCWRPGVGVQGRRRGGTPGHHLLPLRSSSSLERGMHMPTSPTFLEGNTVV
Chain of DNA dC->dU-editing enzyme APOBEC-3G (Q9HC16 whole entry): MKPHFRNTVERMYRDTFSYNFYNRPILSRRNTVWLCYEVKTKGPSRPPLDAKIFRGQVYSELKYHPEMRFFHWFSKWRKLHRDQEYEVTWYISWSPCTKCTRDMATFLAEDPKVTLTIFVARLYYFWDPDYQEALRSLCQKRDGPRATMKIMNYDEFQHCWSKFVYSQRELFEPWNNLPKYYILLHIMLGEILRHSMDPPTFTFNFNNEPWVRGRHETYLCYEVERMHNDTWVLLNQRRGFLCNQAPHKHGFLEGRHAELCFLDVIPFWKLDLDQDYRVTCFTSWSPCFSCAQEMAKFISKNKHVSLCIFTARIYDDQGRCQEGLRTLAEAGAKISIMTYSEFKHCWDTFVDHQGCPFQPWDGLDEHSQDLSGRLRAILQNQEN
Chain of Glycogen synthase kinase-3 alpha (P49840 whole entry): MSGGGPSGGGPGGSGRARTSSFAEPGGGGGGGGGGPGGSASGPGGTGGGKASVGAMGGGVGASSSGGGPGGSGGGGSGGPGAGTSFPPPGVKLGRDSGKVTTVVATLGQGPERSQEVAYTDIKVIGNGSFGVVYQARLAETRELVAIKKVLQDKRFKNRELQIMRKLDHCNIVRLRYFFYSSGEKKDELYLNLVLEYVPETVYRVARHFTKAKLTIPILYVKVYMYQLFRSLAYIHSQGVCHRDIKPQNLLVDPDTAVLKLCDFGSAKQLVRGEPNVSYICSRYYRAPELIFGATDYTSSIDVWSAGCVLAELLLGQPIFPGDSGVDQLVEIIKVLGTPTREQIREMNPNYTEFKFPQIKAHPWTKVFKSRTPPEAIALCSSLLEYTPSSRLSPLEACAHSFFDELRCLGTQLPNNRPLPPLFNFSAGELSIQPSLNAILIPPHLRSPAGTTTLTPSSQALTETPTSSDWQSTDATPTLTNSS

As for `COc1ccc2oc(C(=O)Nc3nc(-c4ccccn4)cs3)c(C)c2c1`, the EC50 in experiment [1] is 0.915 µM (active); in experiment [2] it was 1.22 µM (active); in [3], 18.9 µM (active); in the experiment on Streptococcus, 1.52 µM (active). Also, the IC50 in experiment [4] was 34.1 µM (active); in experiment [5], > 100 µM (inactive); at Prothrombin, 69.4 µM (active).
As to `COc1ccc(C)cc1Nc1n[n+](-c2ccccc2)c(-c2ccc(SC)cc2)s1`, the EC50 in experiment [6] was 15.5 µM (active).
As for `CCCCc1ccc2nc(NC(=O)c3nccs3)sc2c1`, the IC50 in [7] was 5.4 µM (active); on Caspase-3 [8], 4.83 µM (active); in [9] it was 4.9 µM (active); on Caspase-3 [10] it was 5.4 µM (active); in experiment [11], 6.32 µM (active); in experiment [12], 4.4 µM (active). The results for the IC50 in [13] and in experiment [14] were 7.43 µM (active) and 3.3 µM (active), respectively.
On to `Cc1c(CNCc2cccc(Br)c2)c(C(=O)O)c(C)n1Cc1ccc(F)cc1`, for which the IC50 in experiment [15] and in experiment [16] was > 99 µM (inactive) in each case.
On to `c1ccc(-c2nc(NCCCn3ccnc3)c3ccccc3n2)cc1`, for which the IC50 was 20.1 µM (active) in the experiment “cells”, 39 µM (inactive) in [19] and 13.9 µM (active) in experiment [20]. For the same compound, the AC50 in experiment [17] was 11.2 µM (active); in [18] it was 8.78 µM (active).
With `CC(C)c1cc(C(=O)N(C2CCCCC2)C2CCCCC2)no1`, the EC50 in [21] and in experiment [22] was > 50 µM (inactive) in each case.

(Values after ChEMBL document CHEMBL1201862, “PubChem BioAssay data set” (2004).)
